Measurements: US10770169B2, “Method of providing a treatment to a subject based on a dynamic pathway map” (THE REGENTS OF THE UNIVERSITY OF CALIFORNIA, priority 2010, dated 2020)

System: panel of 55 breast cancer cell lines
Experiment: Cell growth inhibition assay (Cell Titer Glo, 72 h, 9 doses; GI50, TGI, LC50)
Assay type: cell-based, human
[1] = HCC70 cell line, censored GI50 values, value is the negative log10 of mol/L
[2] = HCC1428 cell line, censored GI50 values, value is the negative log10 of mol/L
[3] = HCC2185 cell line, censored GI50 values, value is the negative log10 of mol/L
[4] = HCC3153 cell line, censored GI50 values, value is the negative log10 of mol/L
[5] = MDAMB134VI cell line, censored GI50 values, value is the negative log10 of mol/L
[6] = MDAMB175VII cell line, censored GI50 values, value is the negative log10 of mol/L
[7] = SUM52PE cell line, censored GI50 values, value is the negative log10 of mol/L
[8] = SUM225CWN cell line, censored GI50 values, value is the negative log10 of mol/L
[9] = SUM1315MO2 cell line, censored GI50 values, value is the negative log10 of mol/L
[10] = T47D cell line, censored GI50 values, value is the negative log10 of mol/L
[11] = cell line AU565, value is the negative log10 of mol/L
[12] = cell line BT474, value is the negative log10 of mol/L
[13] = cell line BT483, value is the negative log10 of mol/L
[14] = cell line BT549, value is the negative log10 of mol/L
[15] = cell line CAMA1, value is the negative log10 of mol/L
[16] = cell line HCC38, value is the negative log10 of mol/L
[17] = cell line HCC70, value is the negative log10 of mol/L
[18] = cell line HCC202, value is the negative log10 of mol/L
[19] = cell line HCC1143, value is the negative log10 of mol/L
[20] = cell line HCC1187, value is the negative log10 of mol/L
[21] = cell line HCC1395, value is the negative log10 of mol/L
[22] = cell line HCC1419, value is the negative log10 of mol/L
[23] = cell line HCC1428, value is the negative log10 of mol/L
[24] = cell line HCC1500, value is the negative log10 of mol/L
[25] = cell line HCC1806, value is the negative log10 of mol/L
[26] = cell line HCC1937, value is the negative log10 of mol/L
[27] = cell line HCC1954, value is the negative log10 of mol/L
[28] = cell line HCC2185, value is the negative log10 of mol/L
[29] = cell line HCC3153, value is the negative log10 of mol/L
[30] = cell line LY2, value is the negative log10 of mol/L
[31] = cell line MCF7, value is the negative log10 of mol/L
[32] = cell line MDAMB157, value is the negative log10 of mol/L
[33] = cell line MDAMB175V, value is the negative log10 of mol/L
[34] = cell line MDAMB361, value is the negative log10 of mol/L
[35] = cell line MDAMB453, value is the negative log10 of mol/L
[36] = cell line MDAMB468, value is the negative log10 of mol/L
[37] = cell line SKBR3, value is the negative log10 of mol/L
[38] = cell line SUM52PE, value is the negative log10 of mol/L
[39] = cell line SUM149PT, value is the negative log10 of mol/L
[40] = cell line SUM1315MO, value is the negative log10 of mol/L
[41] = cell line UACC812, value is the negative log10 of mol/L
[42] = cell line UACC893, value is the negative log10 of mol/L
[43] = cell line ZR75B, value is the negative log10 of mol/L
[44] = cell line ZR751, value is the negative log10 of mol/L

## O=c1[nH]c(=O)n([C@H]2C[C@H](O)[C@@H](CO)O2)cc1F [5-FdUR]
AU565 cell line, censored GI50 values, value is the negative log10 of mol/L
  GI50: 4.97
BT20 cell line, censored GI50 values, value is the negative log10 of mol/L
  GI50: 3.49
BT474 cell line, censored GI50 values, value is the negative log10 of mol/L
  GI50: 3.29
BT483 cell line, censored GI50 values, value is the negative log10 of mol/L
  GI50: 4.13
CAMA1 cell line, censored GI50 values, value is the negative log10 of mol/L
  GI50: 3.92
HCC38 cell line, censored GI50 values, value is the negative log10 of mol/L
  GI50: 4.00
[1]
  GI50: 3.67
HCC1143 cell line, censored GI50 values, value is the negative log10 of mol/L
  GI50: 4.02
HCC1187 cell line, censored GI50 values, value is the negative log10 of mol/L
  GI50: 3.81
HCC1395 cell line, censored GI50 values, value is the negative log10 of mol/L
  GI50: 3.60
HCC1419 cell line, censored GI50 values
  GI50: 2.73
[2]
  GI50: 3.91
HCC1500 cell line, censored GI50 values, value is the negative log10 of mol/L
  GI50: 4.21
HCC1806 cell line, censored GI50 values, value is the negative log10 of mol/L
  GI50: 4.02
HCC1937 cell line, censored GI50 values, value is the negative log10 of mol/L
  GI50: 3.37
HCC1954 cell line, censored GI50 values, value is the negative log10 of mol/L
  GI50: 3.99
[3]
  GI50: 3.12
[4]
  GI50: 3.24
LY2 cell line, censored GI50 values, value is the negative log10 of mol/L
  GI50: 5.01
[5]
  GI50: 3.15
[6]
  GI50: 4.69
MDAMB231 cell line, censored GI50 values, value is the negative log10 of mol/L
  GI50: 3.10
MDAMB468 cell line, censored GI50 values, value is the negative log10 of mol/L
  GI50: 3.22
SKBR3 cell line, censored GI50 values, value is the negative log10 of mol/L
  GI50: 3.66
[7]
  GI50: 3.49
SUM149PT cell line, censored GI50 values, value is the negative log10 of mol/L
  GI50: 4.11
SUM159PT cell line, censored GI50 values, value is the negative log10 of mol/L
  GI50: 4.49
[8]
  GI50: 3.71
[9]
  GI50: 3.13
[10]
  GI50: 3.48
UACC812 cell line, censored GI50 values, value is the negative log10 of mol/L
  GI50: 4.34
ZR75B cell line, censored GI50 values, value is the negative log10 of mol/L
  GI50: 5.16
ZR751 cell line, censored GI50 values, value is the negative log10 of mol/L
  GI50: 5.27
Cell line 600MPE, value is the negative log10 of mol/L
  GI50: 4.11
[11]
  GI50: 5.18
[12]
  GI50: 3.17
[13]
  GI50: 4.48
[14]
  GI50: 3.74
[15]
  GI50: 3.51
[16]
  GI50: 3.72
[17]
  GI50: 4.05
[18]
  GI50: 4.41
[19]
  GI50: 3.69
[20]
  GI50: 3.18
[21]
  GI50: 3.13
[22]
  GI50: 3.77
[23]
  GI50: 4.99
[24]
  GI50: 4.23
[25]
  GI50: 4.59
[26]
  GI50: 3.64
[27]
  GI50: 4.78
[28]
  GI50: 3.42
[29]
  GI50: 3.45
[30]
  GI50: 4.41
[31]
  GI50: 4.39
Cell line MDAMB134V
  GI50: 2.01
[32]
  GI50: 3.11
[33]
  GI50: 3.95
Cell line MDAMB231, value is the negative log10 of mol/L
  GI50: 3.75
[34]
  GI50: 3.84
Cell line MDAMB436
  GI50: 2.97
[35]
  GI50: 4.01
[36]
  GI50: 3.71
[37]
  GI50: 4.48
[38]
  GI50: 4.40
[39]
  GI50: 4.14
Cell line SUM159PT, value is the negative log10 of mol/L
  GI50: 4.68
Cell line SUM185PE
  GI50: 2.53
[40]
  GI50: 3.37
[41]
  GI50: 4.02
[42]
  GI50: 3.30
[43]
  GI50: 4.95
[44]
  GI50: 4.51

## CC(C)(C)c1cc(C=C(C#N)C#N)cc(Br)c1O [AG1024]
[1]
  GI50: 5.21
HCC202 cell line, censored GI50 values, value is the negative log10 of mol/L
  GI50: 4.92
HCC1419 cell line, censored GI50 values, value is the negative log10 of mol/L
  GI50: 4.70
[2]
  GI50: 5.05
[3]
  GI50: 5.11
[4]
  GI50: 5.11
[5]
  GI50: 4.69
[6]
  GI50: 4.82
MDAMB361 cell line, censored GI50 values, value is the negative log10 of mol/L
  GI50: 4.69
[7]
  GI50: 5.45
SUM185PE cell line, censored GI50 values, value is the negative log10 of mol/L
  GI50: 5.57
[8]
  GI50: 5.03
[9]
  GI50: 5.17
[10]
  GI50: 4.68
UACC893 cell line, censored GI50 values, value is the negative log10 of mol/L
  GI50: 4.75
[11]
  GI50: 4.48
Cell line BT20, value is the negative log10 of mol/L
  GI50: 4.48
[12]
  GI50: 4.48
[13]
  GI50: 4.48
[14]
  GI50: 4.48
[15]
  GI50: 4.48
[16]
  GI50: 4.48
[17]
  GI50: 5.21
[18]
  GI50: 4.92
[19]
  GI50: 4.58
[20]
  GI50: 4.48
[21]
  GI50: 4.48
[22]
  GI50: 4.70
[23]
  GI50: 5.05
[24]
  GI50: 4.58
[25]
  GI50: 4.48
[26]
  GI50: 4.48
[27]
  GI50: 4.50
[28]
  GI50: 5.11
[29]
  GI50: 5.11
[30]
  GI50: 4.48
[31]
  GI50: 4.48
Cell line MDAMB134V, value is the negative log10 of mol/L
  GI50: 4.69
[32]
  GI50: 4.48
[33]
  GI50: 4.82
[34]
  GI50: 4.69
Cell line MDAMB415, value is the negative log10 of mol/L
  GI50: 4.48
Cell line MDAMB436, value is the negative log10 of mol/L
  GI50: 4.48
[35]
  GI50: 4.51
[36]
  GI50: 4.48
[37]
  GI50: 4.48
[38]
  GI50: 5.45
[39]
  GI50: 4.48
Cell line SUM185PE, value is the negative log10 of mol/L
  GI50: 5.57
Cell line SUM225CWN, value is the negative log10 of mol/L
  GI50: 5.03
[40]
  GI50: 5.17
Cell line T47D, value is the negative log10 of mol/L
  GI50: 4.68
[41]
  GI50: 4.48
[42]
  GI50: 4.75
[43]
  GI50: 4.48
[44]
  GI50: 4.52
